Experimental data as given in paper PMC10638401, “Mannich-type modifications of (−)-cannabidiol and (−)-cannabigerol leading to new, bioactive derivatives” (Scientific Reports, 2023).
Converted amounts (≈) assume the structure as drawn.

Legend:
[1] = tested on: Enterococcus faecalis 15 376 VanA; test: MIC, broth micro dilution; details: Enterococcus faecalis, 15376VANA
Description: (§2) According to CLSI guideline the Minimal Inhibitory Concentrations (MICs) of the prepared compounds were determined with the broth micro dilution method. After an overnight growth on 5% bovine blood agar plates at 35 °C bacterial strains were suspended in physiological saline in order to reach the density of 0.5 McFarland for inoculation. Stock solutions containing different concentrations of the substances were prepared in DMSO and H2O (1:1). These were twofold serially diluted from 256 to 0.5 mg/l in Mueller–Hinton broth, and 100 ml of each dilution was inoculated with 10 ml of each bacterial suspension.

[2] = tested on: MSSA (Methicillin Sensitive Staphylococcus aureus); test: MIC, broth micro dilution; details: Staphylococcus aureus
Description: as §2

[3] = tested on: Staphylococcus epidermidis mecA; test: MIC, broth micro dilution; details: Staphylococcus epidermidis
[4] = tested on: Staphylococcus epidermidis biofilm forming; test: MIC, broth micro dilution; details: Staphylococcus epidermidis
Description: as §2

[5] = tested on: SARS-CoV-2; test: SARS-CoV-2 cytopathic effect (CPE) inhibition assay in Vero E6 cells (XTT); format: cell-based; details: Severe acute respiratory syndrome coronavirus 2, Vero C1008, 72 h; Vero E6 cells, 3 days post-infection, XTT
[6] = tested on: MRSA (Methicillin Resistant Staphylococcus aureus); test: MIC, broth micro dilution; details: Staphylococcus aureus
Description: as §2

[7] = tested on: Bacillus subtilis; test: MIC, broth micro dilution
[8] = tested on: Enterococcus faecalis 29 212; test: MIC, broth micro dilution; details: Enterococcus faecalis, 29212
[9] = in vitro; details: African green monkey
[10] = tested on: SARS-CoV-2; test: SARS-CoV-2 immunofluorescence assay (nucleoprotein expression) in Vero E6 cells; format: cell-based; details: Severe acute respiratory syndrome coronavirus 2, Vero C1008, 72 h, three days
Description: CBD and CBG derivatives were further tested for their ability to inhibit SARS-CoV-2 replication in Vero E6 cells. Initially, the inhibition of virus-induced cytopathic effect was measured by addition of twofold serial dilutions of each derivative to the cells, followed by the infection with SARS-CoV-2 and determination of the cell viability 3 days post-infection by XTT assay. Concurrently, the cytotoxicity of each compound was assessed from identical dilutions in uninfected Vero E6 cells. To confirm anti-SARS-CoV-2 activity in the CPE inhibition assay, selected compounds were tested in immunofluorescence assay, where inhibition of SARS-CoV-2 replication was monitored as reduction in nucleoprotein expression using fluorescence microscope. […] Among the CBG derivatives, we can find quite cytotoxic and non-cytotoxic derivatives as well.
For CPE-based assay, two-fold fold serial dilutions of compounds from 100 µM were added in triplicate in a 384-well plate with 5000 Vero E6 cells in DMEM medium with 2% FBS, 100 U of penicillin/ml and 100 µg of streptomycin/ml (all Merck). After 1 h incubation SARS-CoV-2 (strain hCoV-19/Czech Republic/NRL_6632_2/2020) was added at multiplicity of infection […]. Following three days incubation at 37 °C in 5% CO2 the cell viability was determined by addition of XTT solution (Sigma-Aldrich) for 4 h and the absorbance was measured using EnVision plate reader (Perkin Elmer). Drug concentrations required to reduce viral cytopathic effect by 50% (EC50) were calculated using nonlinear regression from plots of percentage cell viability versus log10 drug concentration using GraphPad Prism (version 9.0.0, GraphPad Software, LLC). For immunofluorescence assay, two-fold fold serial dilutions of compounds from 100 µM were added in triplicate in 96-well plate with 15,000 Vero E6 cells plated day before in the same medium as above. After 1 h incubation, SARS-CoV-2 was added at multiplicity of infection 0.05 IU/cell. After three days of incubation, cells were fixed with 4% paraformaldehyde, permeabilized with 0.2% Triton X100 (both Merck), washed, incubated with anti-SARS-CoV-2antibody (mouse monoclonal antibody detecting SARS-CoV-2 nucleoprotein) for 2 h at room temperature. Followed by 1.5 h incubation with Cy3-labeled donkey anti-mouse IgG (Jackson ImmunoResearch Europe) and documented using fluorescence microscope with camera (Olympus). Images were processed in ImageJ software (NIH) and compound concentrations required to reduce fluorescence by 50% (EC50s) were calculated from plots of percentage of fluorescent cells versus log10 drug concentration using nonlinear regression analysis as above. Cytotoxicity was evaluated by incubating with the same two-fold serial dilutions of each compound as above with Vero E6 cells in 384-well plate.

[11] = tested on: MDA-MB-231 cells; test: Antiproliferative MTT assay, 72 h; format: cell-based, human
In short: (§1)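 Cells seeded at 5000/well, grown overnight, then treated with 10 or 30 μM compound for 72 h. MTT added for 4 h, formazan dissolved in DMSO and read at 545 nm. Values are % proliferation inhibition versus untreated controls (0%), two experiments with five wells each.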

[12] = tested on: MCF7 cells; test: Antiproliferative MTT assay, 72 h; format: cell-based, human
In short: as §1

[13] = tested on: A2780 cells; test: Antiproliferative MTT assay, 72 h; format: cell-based, human
In short: as §1

[14] = tested on: SiHa cells; test: Antiproliferative MTT assay, 72 h; format: cell-based, human
In short: as §1

[15] = tested on: SZ95 sebocytes; test: Nile Red-assay, spontaneous sebaceous lipogenesis; format: cell-based, human; details: 48 h
[16] = tested on: Enterococcus faecalis 51299 VanB; test: MIC, broth micro dilution; details: Enterococcus faecalis, 51299VANB
Description: as §2

For `C=C(C)[C@@H]1CCC(C)=C[C@H]1c1c(O)cc(CCCCC)c(COCC)c1O` [Compound 9], the MIC [1] was 128 µg/mL (≈ 344 µM), the MIC [2] was over 256 µg/mL and the MIC [3] was over 256 µg/mL. It also gave an MIC [4] of over 256 µg/mL, an EC50 [5] of 22 ± 3 µM and an MIC [6] of over 256 µg/mL. It also gave an MIC [7] of over 256 µg/mL, an MIC [8] of 8 µg/mL (≈ 21.5 µM) and a CC50 [9] of over 100 µM. The EC50 [10] was about 94 µM, the “antiproliferative activity (in words)” value ([11]; MDA-MB-231, 10 and 30 μM) was “None of the other tested CBD analogs (9, 11, and 12) exhibited substantial antiproliferative activity” and the “antiproliferative activity (in words)” value ([12]; MCF7, 10 and 30 μM) was “None of the other tested CBD analogs (9, 11, and 12) exhibited substantial antiproliferative activity”. For the same molecule, the “antiproliferative activity (in words)” value ([13]; A2780, 10 and 30 μM) was “None of the other tested CBD analogs (9, 11, and 12) exhibited substantial antiproliferative activity”, the “antiproliferative activity (in words)” value ([14]; 10 and 30 μM) was “None of the other tested CBD analogs (9, 11, and 12) exhibited substantial antiproliferative activity” and the “spontaneous, homeostatic sebaceous lipogenesis” value ([15]; applied alone) was “rather promote spontaneous, homeostatic sebaceous lipogenesis”. For the same molecule, the MIC [16] was 8 µg/mL (≈ 21.5 µM).

In the case of `C=C(C)[C@@H]1CCC(C)=C[C@H]1c1c(O)cc(CCCCC)cc1O` [Compound 1, (−)-Cannabidiol], the MIC [1] is reported as 4 µg/mL (≈ 12.7 µM), the MIC [2] is reported as 4 µg/mL (≈ 12.7 µM) and the MIC [3] is reported as 8 µg/mL (≈ 25.4 µM). The MIC [4] was 8 µg/mL (≈ 25.4 µM), the EC50 [5] was 5.1 ± 0.99 µM and the MIC [6] was 4 µg/mL (≈ 12.7 µM). It also gave an MIC [7] of 4 µg/mL (≈ 12.7 µM), an MIC [8] of 2 µg/mL (≈ 6.36 µM) and a CC50 [9] of 12.1 ± 1.2 µM. The EC50 [10] was 8.3 ± 0.28 µM, the inhibition at 30 µM ([11]; Homo sapiens, MDA-MB-231, 30 μM, read-out: inhibition of the proliferation) was about 90% and the “inhibition of the proliferation (in words)” value (shortened to “inhibition … (in words)”) ([11]; MDA-MB-231, 10 μM) was “negligible”. The inhibition at 30 µM ([12]; Homo sapiens, MCF7, 30 μM, read-out: inhibition of the proliferation) was about 90%, the “inhibition … (in words)” value ([12]; MCF7, 10 μM) was “modest” and the “inhibition … (in words)” value ([13]; A2780, 10 μM) was “modest”. The inhibition at 30 µM ([13]; Homo sapiens, A2780, 30 μM, read-out: inhibition of the proliferation) was about 90%, the “inhibition … (in words)” value ([14]; 10 μM) was “negligible” and the inhibition at 30 µM ([14]; Homo sapiens, 30 μM, read-out: inhibition of the proliferation) was about 90%. The “spontaneous, homeostatic sebaceous lipogenesis (lipid synthesis)” value ([15]; 30 μM) was “significant decrease in the lipid synthesis”, the “spontaneous, homeostatic sebaceous lipogenesis” value ([15]; ≤ 10 μM) was “no effect” and the MIC [16] was 4 µg/mL (≈ 12.7 µM).
